Data reported in a melting point compilation (Tetko et al.; mined from patent text by program, amines drawn as free bases though some values may be those of a salt).

Q: Which melting point does the source give for CCCNC(=O)c1nc(-c2ccccc2)c(-c2ccc(=O)n(C(C)C)n2)s1 here?
A: 141 to 142 °C

Q: For Cc1cc(C)c(C=NNC(=O)c2ccc(O)cc2)[nH]1, which melting point is on record?
A: 261 °C

Q: With COC(=O)c1[nH]c(C)c(Cc2ccccc2)c1N as the molecule, how does the melting point read?
A: 143 to 144 °C

Q: For CCc1cc(OCc2ccc(-c3ccccc3-c3nnn(C(c4ccccc4)(c4ccccc4)c4ccccc4)n3)cc2)c2nc(OC(C)C)c(Cl)cc2n1, which melting point is on record?
A: 179 to 183 °C

Q: For Nc1c(Cl)ncnc1NCc1ccccn1, which melting point is on record?
A: 140 °C

Q: Which melting point does the source give for CCOP(=S)(NCc1cccc(-c2nc(=O)c3ccccc3s2)n1)OCC here?
A: 132 to 133 °C

Q: Which melting point does the source give for O=C(NC/C=C\COc1cc(CN2CCCCC2)ccn1)c1cn[nH]c1 here?
A: 121 to 123 °C

Q: With COC(=O)c1ccccc1C1=NC(C)(C(C)C)C(=O)N1O (stereo not given) as the molecule, how does the melting point read?
A: 146 to 150 °C

Q: With CCOc1cc(N(CC)CC)ccc1-c1nc2n(C3CCCC3)[nH]c(CC)c-2c(=O)n1 as the molecule, how does the melting point read?
A: 138 to 139 °C

Q: With CC(C)n1cc(Nc2nc(-c3ccc4cn[nH]c4c3)cn3ccnc23)cn1 as the molecule, how does the melting point read?
A: > 250 °C

Q: Which melting point does the source give for CC(C)(C)N1C(=O)c2cnc(-c3ccccc3)nc2Nc2ccccc21 here?
A: 221 to 222 °C

Q: For Cc1ccc(-c2ccc(S(N)(=O)=O)cc2)n1-c1ccc(Cl)cc1, which melting point is on record?
A: 152 to 154 °C

Q: Which melting point does the source give for O=C1NC(=O)C(Cc2ccc(NC(=O)c3sc(Nc4ccccc4)c4c3CCc3cnoc3-4)cc2)S1 (stereo not given) here?
A: 151 to 152 °C

Q: For CN1C(=O)Cc2cc(C3=NNC(=O)C4CCC34)ccc21 (stereo not given), which melting point is on record?
A: 256 to 259 °C

Q: Which melting point does the source give for O=C(O)c1cc(S)cc(C(=O)O)c1 here?
A: 240 to 246 °C

Q: With C#CCNC(=O)N1CC(c2cccc(C(F)(F)F)c2)C1 as the molecule, how does the melting point read?
A: 121 °C

Q: With CCOC(=O)C1=C2NC=C(C(N)=O)C(=O)N2C(C)CC1 (stereo not given) as the molecule, how does the melting point read?
A: 251 °C

Q: For CO[C@]1(c2cc(F)cc(OCc3ccc4c(ccc(=O)n4C)c3)c2)CCO[C@@H](C)C1, which melting point is on record?
A: 91 to 93 °C

Q: With CCCCCCCCCCCCCCCCCCOc1cc(N)cc(OCCCP(=O)(OCC)OCC)c1 as the molecule, how does the melting point read?
A: 63 to 65 °C

Q: With CC1=CC(O)C(OC(=O)c2ccc(N)cc2N)C(C)(C)CC1=O (stereo not given) as the molecule, how does the melting point read?
A: 185 to 186 °C

Q: With Brc1ccc2c(c1Cc1cccc3cnccc13)OCO2 as the molecule, how does the melting point read?
A: 194 to 197 °C

Q: For CC(=O)OCc1cc(=O)c(Oc2ccc(F)cc2)c(-c2ccc(S(C)(=O)=O)cc2)o1, which melting point is on record?
A: 180 °C

Q: For CC(C)(C)Sc1ccc(CN(O)C(N)=O)s1, which melting point is on record?
A: 101 to 103 °C

Q: For CCOC(=O)Cc1c(C(C)C(=O)O)c2cc(OC)ccc2n1Cc1ccc(Cl)cc1 (stereo not given), which melting point is on record?
A: 163 to 165 °C

Q: With Cc1ccc(Cn2nnc(C(N)=O)c2N)cc1C(Cl)=C(Cl)Cl as the molecule, how does the melting point read?
A: 196 to 197 °C

Q: For O=C(c1ccc(-c2ccc(O)cc2)cc1)C1CC=CC1, which melting point is on record?
A: 153 to 155 °C

Q: Which melting point does the source give for CCOC(=O)C(=CNC1CC1)C(=O)c1cc(F)c(-n2cccc2)cc1F here?
A: 90 to 92 °C

Q: For O=C1CC2(CCCC2)CC(=O)N1CCCCN(c1ccncc1)n1c2ccccc2c2ccccc21, which melting point is on record?
A: 90 to 92 °C

Q: Which melting point does the source give for Cc1c(-c2ccnc(C(F)(F)F)c2)sc2nc(N)[nH]c(=O)c12 here?
A: 335 to 355 °C

Q: For CCCCC(Cc1ccc(OCCNC(=O)c2ccc(-c3ccc(C(=O)OC)cc3)cc2)cc1)C(=O)OCC (stereo not given), which melting point is on record?
A: 93 to 95 °C

Q: Which melting point does the source give for O=C1CNC(=O)N1Cc1ccccc1 here?
A: 139 to 140 °C

Q: For CCc1nc(COc2ccc(NC(=O)/C=C/c3cnn(C)c3-c3ccc(F)cc3)cc2)cs1, which melting point is on record?
A: 98 to 99 °C

Q: Which melting point does the source give for CC(NC(=O)Cc1cc(F)cc(F)c1)C(=O)NC1C(=O)NC(c2ccncc2)c2ccccc21 (stereo not given) here?
A: 100 °C

Q: Which melting point does the source give for COc1cccc(OC)c1-c1cc(C(=O)NC2(C(=O)O)C3CC4CC(C3)CC2C4)nn1-c1ccc(CNC(C)=O)c2ccccc12 (stereo not given) here?
A: 211 °C

Q: With COc1ccc(Cn2nnc(C3=C(O)c4ccccc4S(=O)(=O)N3C)n2)cc1 as the molecule, how does the melting point read?
A: 178 to 181 °C

Q: With CN(C)C(=O)c1cccc(C(C(N)=O)c2cccc(Br)c2)c1 (stereo not given) as the molecule, how does the melting point read?
A: 119 to 120 °C

Q: With CCCc1c(OCc2ccc(CBr)cc2)ccc(C(C)=O)c1O as the molecule, how does the melting point read?
A: 98 to 99 °C

Q: Which melting point does the source give for CCNc1ccc(S(=O)c2ccccc2)cc1[N+](=O)[O-] (stereo not given) here?
A: 122 to 124 °C

Q: With CC(=O)OCc1c(Br)cccc1N1CCc2c(sc3c2CC(C)(C)C3)C1=O as the molecule, how does the melting point read?
A: 126 to 128 °C

Q: Which melting point does the source give for CCOc1cccc(N2CCN(CCCCOc3ccc4c(n3)NC(=O)CC4)CC2)c1Cl here?
A: 110 to 112 °C

Q: With CCCOc1ccc(C=CC(=O)c2c(O)cc(OC)cc2OC)cc1 as the molecule, how does the melting point read?
A: 96.7 °C

Q: Which melting point does the source give for CN1CC(=O)Nc2ccccc2C1 here?
A: 113 to 114 °C

Q: For O=C(Nc1ccc(C2CCC(O)C2)cc1)OCc1ccccc1 (stereo not given), which melting point is on record?
A: 99 to 101 °C

Q: Which melting point does the source give for Cn1c(C=O)nnc1NCCCOc1cccc(CN2CCCCC2)c1 here?
A: 157 to 158 °C

Q: Which melting point does the source give for CCOC(=O)C(C#N)C(=O)c1nn(-c2ccccc2)c2c1CSc1ccccc1-2 (stereo not given) here?
A: 176 to 178 °C

Q: With Cc1nc(Sc2ccccc2)sc1C(=O)O as the molecule, how does the melting point read?
A: 187 to 188 °C

Q: With O=C(OCCO)c1ncn2c1[C@@H]1CCCN1C(=O)c1sccc1-2 as the molecule, how does the melting point read?
A: 182 to 184 °C

Q: With CC1CC(Nc2nnc(-c3cccc(Oc4ccc(C(C)(C)C)cc4)c3)s2)CC(C)(C)C1 (stereo not given) as the molecule, how does the melting point read?
A: 166 to 167 °C

Q: Which melting point does the source give for COc1ccc2nc3cc(OC)c(=O)c(Cl)c-3sc2c1 here?
A: 264 °C

Q: With CCOc1cc(C=CC(=O)OC)ccc1OCc1coc(-c2ccccc2)n1 as the molecule, how does the melting point read?
A: 125 to 126 °C

Q: With O=C(O)c1ccc(=O)n(CCNC(=O)c2cccnc2)c1 as the molecule, how does the melting point read?
A: > 295 °C

Q: Which melting point does the source give for COn1cc(C(=O)O)c(=O)c2cc3cc(F)c(F)cc3nc21 here?
A: 325 to 327 °C

Q: Which melting point does the source give for CCCn1c(COCC)nc2c(N)nc3ccc(OCCN)cc3c21 here?
A: 157 to 159 °C

Q: With COc1ccc(-c2cnn3ccc(-c4ccc(OCCCNC(=O)OC(C)(C)C)c(OC)c4)nc23)cc1OC as the molecule, how does the melting point read?
A: 131 to 133 °C

Q: With Cc1cc(OCc2ccccc2)cc(OCCCc2ccccc2)c1C(=O)O as the molecule, how does the melting point read?
A: 109 to 111 °C

Q: With NS(=O)(=O)c1ccc(N2CN(c3ccccc3)CC2=O)cc1Cl as the molecule, how does the melting point read?
A: 257 to 259 °C

Q: Which melting point does the source give for C=CC=C1SC(=S)N(CC(=O)O)C1=O here?
A: 144 to 146 °C

Q: With COCCNC(=O)c1cc2c(nc(C)n2C)c2c1CCC1(Cc3ccccc3C1)N2 as the molecule, how does the melting point read?
A: 186 to 187 °C

Q: Which melting point does the source give for CC(=O)OCC(=O)Nc1cccc(-c2nnc(C(c3ccc(Cl)cc3)c3c(Cl)ccc(-n4ncc(=O)[nH]c4=O)c3Cl)o2)c1C (stereo not given) here?
A: 206 °C

Q: Which melting point does the source give for O=C(O)c1cccc2c1CC(c1csc(-c3ccncc3)n1)C(=O)N2 (stereo not given) here?
A: > 250 °C

Q: Which melting point does the source give for O=C(O)c1ccc(CC2(Cc3ccc(C(=O)O)cc3)C(=O)N=C3C=CC=CN32)cc1 here?
A: > 300 °C

Q: With CN1CC=C(c2c[nH]c(-c3ccc(F)cc3)c2-c2ccncc2)CC1Cc1ccccc1 (stereo not given) as the molecule, how does the melting point read?
A: 198 to 199 °C

Q: For COc1cc(OC)c2c(=O)[nH]c(-c3ccc(OCC(=O)O)c(OC)c3)nc2c1, which melting point is on record?
A: 275 to 277 °C

Q: Which melting point does the source give for CC(C)C(=N)Nc1ccccc1N1CCOCC1 here?
A: 138 °C

Q: For O=C(CNc1ccc(F)cc1)Nc1ccccc1C(=O)O, which melting point is on record?
A: 217 to 219 °C

Q: With O=c1c2cccc(O)c2oc2cc(O)cc(O)c12 as the molecule, how does the melting point read?
A: 211 to 213 °C

Q: For COC[C@@H](NC(=O)c1nn(-c2ccc(F)cc2F)c2c1C1CCC2C1)c1ccc(F)cc1 (stereo not given in full), which melting point is on record?
A: 109 to 111 °C

Q: With Oc1c(C23CC4CC(CC(C4)C2)C3)ccc2ccccc12 as the molecule, how does the melting point read?
A: 209 to 210 °C

Q: Which melting point does the source give for CNC(=O)Nc1ccc(OCCCN2CCN(c3ccccc3)CC2)c(OC)c1 here?
A: 167 to 169 °C

Q: Which melting point does the source give for N#Cc1ccc(COc2ccc(-c3ccc(C4Cc5ccccc5C(c5c(O)c6ccccc6oc5=O)C4)cc3)cc2)cc1 (stereo not given) here?
A: 127 °C
